Converted amounts (≈) assume the structure as drawn. Read-outs that look alike come from different tables or passages of the source.
Columns and labels:
houseflies = experiment: whole plant or invertebrate; details: Musca domestica, topical, 24 h, read-out: Houseflies LD50
Procedure: Toxicity of the compounds of the present invention to houseflies was tested using the technique described by March and Metcalf in Bull. Calif. State Dept. Agr. […] Adult female houseflies were treated with one drop of acetone solution, applied to the prothorax, using a syringe calibrated to deliver 1.00 ± 0.05 mm^3 drops. Twenty flies were treated at each dosage, each test compound was applied at 8 to 10 dosage levels. Each test was replicated three times. […] A one-inch square of cotton saturated with 40% sugar solution was provided for food in each carton. The cartons of flies were held in a constant temperature chamber at 60° F and 60% relative humidity for 24 hours before mortality counts were made. Flies totally unable to make crawling or walking movements were counted as dead. LD50 values were calculated in the conventional manner.

Culex fatigans = experiment: whole plant or invertebrate; details: Culex quinquefasciatus, 24 h, read-out: Mosquitoes LC50
Procedure: The appropriate amount of stock solution was added with stirring to 100 ml of tap water and 20-25 fourth instar larvae of Culex fatigans were placed in the solution. After twenty-four hours, the counts were taken. Larvae not able to rise to the surface on touch were counted as dead. Each concentration was run in duplicate and each material was run on two or three different days. The average percent mortality was plotted against the logarithm of the concentration (in ppm) and the LC50 value determined by inspection.

in vivo = details: mouse, po
Procedure: Acute oral toxicity of the compounds of the present invention to mice was determined after the manner of Hollingworth, Fukuto, and Metcalf in J. Agr. […] A dose of 0.25 ml of each solution was administered to each of four female white Swiss mice using the "bolus" - tipped syringe. […] Final mortality determinations were made forty-eight hours after treatment.

confused flour beetle [1] = experiment: Initial contact activity, confused flour beetle; assay type: in vivo; details: Tribolium confusum, read-out: % Kill, FB (initial contact)
Procedure: (§1) Initial Contact Activity: One-half gram of test compound was dissolved in 40 ml of acetone and this solution was dispersed in 360 ml of water containing one drop of isooctyl phenyl polyethoxyethanol. An aliquot of this solution was diluted with water to provide a solution containing 1250 ppm of active ingredient. Test organisms and techniques were as follows: The activities against the Mexican bean beetle (Epilachna varivestis Muls.) and the southern army worm (Prodenia eridania [Cram.]) were evaluated by dipping the leaves of pinto bean plants into the test solution and infesting the leaves with the appropriate immature form insects when the foliage had dried; the activity against the pea aphid (Macrosiphum pisi [Harris]) was evaluated on broad bean plants whose leaves were dipped before infestation with adult aphids; the activity against the two-spotted spider mite (Tetranychus urticae [L.]) was evaluated on pinto bean plants whose leaves were dipped after infestation with adult mites; the activities against the milkweed bug (Oncopeltus fascinatus [Dallas]) and the plum curculio (Conotrachelus nenuphar [Herbst]) were evaluated by spraying the test solutions into glass dishes containing the adult insects; the activities against the granary weevil (Sitophilus granarius [L.]) and the confused flour beetle (Tribolium confusum [duVal]) were evaluated by introducing the insects into glass dishes which had been previously sprayed with test solution and allowed to dry. All organisms in the test were maintained in a holding room at 80° F. and 50% relative humidity for an exposure period of forty-eight hours. At this time the number of dead and living insects were counted and the percent kill was calculated.

confused flour beetle [2] = experiment: Residual contact activity, confused flour beetle; assay type: in vivo; details: Tribolium confusum, 48 h, read-out: % Kill, FB (residual contact)
Procedure: as §1
The residual contact activity of the compounds was determined on the same organisms using the technique described above, except that in each case the treated surface was allowed to dry and was exposed to normal light and air for seven days before introduction of the mites or insects. The compounds show a high order of residual activity toward the test insects.

southern army worm [3] = details: 2880 min
Mexican bean beetle [4] = experiment: whole plant or invertebrate; details: Epilachna varivestis, 48 h, read-out: % Kill, BB (systemic)
pea aphid [5] = experiment: whole plant or invertebrate; details: Acyrthosiphon pisum, 48 h, read-out: % Kill, PA (systemic)
two-spotted spider mite [6] = experiment: whole plant or invertebrate; details: Tetranychus urticae, 48 h, read-out: % Kill, SM (systemic)
pea aphid [7] = experiment: Initial contact activity, pea aphid; details: Acyrthosiphon pisum, 48 h, read-out: % Kill, PA (initial contact)
pea aphid [8] = experiment: Residual contact activity, pea aphid; details: Acyrthosiphon pisum, 48 h, read-out: % Kill, PA (residual contact)
milkweed bug [9] = experiment: Initial contact activity, milkweed bug; details: Oncopeltus fasciatus, 48 h, read-out: % Kill, MWB (initial contact)
plum curculio [10] = experiment: Initial contact activity, plum curculio; details: Conotrachelus nenuphar, 48 h, read-out: % Kill, PC (initial contact)
milkweed bug [11] = experiment: Residual contact activity, milkweed bug; details: Oncopeltus fasciatus, 48 h, read-out: % Kill, MWB (residual contact)
granary weevil [12] = experiment: Initial contact activity, granary weevil; details: Sitophilus granarius, 48 h, read-out: % Kill, GW (initial contact)
plum curculio [13] = experiment: Residual contact activity, plum curculio; details: Conotrachelus nenuphar, 48 h, read-out: % Kill, PC (residual contact)
granary weevil [14] = experiment: Residual contact activity, granary weevil; details: Sitophilus granarius, 48 h, read-out: % Kill, GW (residual contact)
southern army worm [15] = experiment: Initial contact activity, southern army worm; details: 1250 ppm, 48 h exposure
Mexican bean beetle [16] = experiment: Initial contact activity, Mexican bean beetle; details: Epilachna varivestis, 48 h, read-out: % Kill, BB (initial contact)
southern army worm [17] = experiment: Residual contact activity, southern army worm; details: 1250 ppm; 7 days; 2880 min
Mexican bean beetle [18] = experiment: Residual contact activity, Mexican bean beetle; details: Epilachna varivestis, 48 h, read-out: % Kill, BB (residual contact)
two-spotted spider mite [19] = experiment: Initial contact activity, two-spotted spider mite; details: Tetranychus urticae, 48 h, read-out: % Kill, SM (initial contact)
two-spotted spider mite [20] = experiment: Residual contact activity, two-spotted spider mite; details: Tetranychus urticae, 48 h, read-out: % Kill, SM (residual contact)
[21] = 39 ppm soil watering, separate test vs carbofuran

Cc1cc(C(C)(C)C)ccc1SN(C)C(=O)Oc1cccc2c1OC(C)(C)C2 [Example VI, 2,3-Dihydro-2,2-dimethyl-7-benzofuranyl [4-(tert-butyl)-2-methylphenylthio] (methyl)carbamate]
LD50 (houseflies): 7.5 mg/kg
LC50 (Culex fatigans): 2 ng/mL (≈ 5.01 nM)
LD50 at 48 h (in vivo): 75 to 125 mg/kg
mortality at 1250 ppm (confused flour beetle [1]; 1250 ppm, 48 h exposure): 90%
mortality at 1250 ppm (confused flour beetle [2]; 1250 ppm, 7 days): 100%
% Kill, AW (systemic) (southern army worm [3]; [21]): 0%
% Kill, AW (systemic) (southern army worm [3]; 156 ppm soil watering): 0%
mortality at 39 ppm (Mexican bean beetle [4]): 85%
mortality at 156 ppm (Mexican bean beetle [4]): 100%
mortality at 39 ppm (pea aphid [5]): 35%
mortality at 156 ppm (pea aphid [5]): 95%
mortality at 39 ppm (two-spotted spider mite [6]): 11%
mortality at 156 ppm (two-spotted spider mite [6]): 6%
mortality at 1250 ppm (pea aphid [7]): 0%
mortality at 1250 ppm (pea aphid [8]): 0%
mortality at 1250 ppm (milkweed bug [9]): 100%
mortality at 1250 ppm (plum curculio [10]): 100%
mortality at 1250 ppm (milkweed bug [11]): 95%
mortality at 1250 ppm (granary weevil [12]): 100%
mortality at 1250 ppm (plum curculio [13]): 53%
mortality at 1250 ppm (granary weevil [14]): 100%
% Kill, AW (initial contact) (southern army worm [15]): 95%
mortality at 1250 ppm (Mexican bean beetle [16]): 100%
% Kill, AW (residual contact) (southern army worm [17]): 100%
mortality at 1250 ppm (Mexican bean beetle [18]): 100%
mortality at 1250 ppm (two-spotted spider mite [19]): 77%
mortality at 1250 ppm (two-spotted spider mite [20]): 7%

Cc1ccc(SN(C)C(=O)Oc2cccc3c2OC(C)(C)C3)cc1 [IV, 2,3-Dihydro-2,2-dimethyl-7-benzofuranyl(methyl)(4-methylphenylthio)carbamate]
LD50 (houseflies): 9 mg/kg
LC50 (Culex fatigans): 4.5 ng/mL (≈ 13.1 nM)
LD50 at 48 h (in vivo): 100 to 125 mg/kg
mortality at 1250 ppm (confused flour beetle [1]; 48 h): 100%
mortality at 1250 ppm (confused flour beetle [2]): 92%
% Kill, AW (systemic) (southern army worm [3]; [21]): 100%
% Kill, AW (systemic) (southern army worm [3]; 156 ppm soil watering): 100%
mortality at 39 ppm (Mexican bean beetle [4]): 100%
mortality at 156 ppm (Mexican bean beetle [4]): 100%
mortality at 39 ppm (pea aphid [5]): 100%
mortality at 39 ppm (two-spotted spider mite [6]): 24%
mortality at 156 ppm (two-spotted spider mite [6]): 64%
mortality at 1250 ppm (milkweed bug [9]): 100%
mortality at 1250 ppm (plum curculio [10]): 100%
mortality at 1250 ppm (milkweed bug [11]): 100%
mortality at 1250 ppm (granary weevil [12]): 100%
mortality at 1250 ppm (plum curculio [13]): 100%
mortality at 1250 ppm (granary weevil [14]): 100%
% Kill, AW (initial contact) (southern army worm [15]): 100%
mortality at 1250 ppm (Mexican bean beetle [16]): 100%
% Kill, AW (residual contact) (southern army worm [17]): 100%
mortality at 1250 ppm (Mexican bean beetle [18]): 100%
mortality at 1250 ppm (two-spotted spider mite [19]): 100%
mortality at 1250 ppm (two-spotted spider mite [20]): 94%

Cc1cccc(SN(C)C(=O)Oc2cccc3c2OC(C)(C)C3)c1 [Example X, 2,3-Dihydro-2,2-dimethyl-7-benzofuranyl (3-methylphenylthio)(methyl)carbamate]
LD50 (houseflies): 6.5 mg/kg
LC50 (Culex fatigans): 4 ng/mL (≈ 11.6 nM)
LD50 at 48 h (in vivo): 25 to 50 mg/kg
mortality at 1250 ppm (confused flour beetle [1]; 1250 ppm, 48 h exposure): 100%
mortality at 1250 ppm (confused flour beetle [2]; 1250 ppm, 7 days): 100%
% Kill, AW (systemic) (southern army worm [3]; [21]): 100%
% Kill, AW (systemic) (southern army worm [3]; 156 ppm soil watering): 100%
mortality at 39 ppm (Mexican bean beetle [4]): 100%
mortality at 156 ppm (Mexican bean beetle [4]): 100%
mortality at 39 ppm (pea aphid [5]): 100%
mortality at 156 ppm (pea aphid [5]): 100%
mortality at 39 ppm (two-spotted spider mite [6]): 26%
mortality at 156 ppm (two-spotted spider mite [6]): 28%
mortality at 1250 ppm (pea aphid [7]): 100%
mortality at 1250 ppm (pea aphid [8]): 100%
mortality at 1250 ppm (milkweed bug [9]): 100%
mortality at 1250 ppm (plum curculio [10]): 100%
mortality at 1250 ppm (milkweed bug [11]): 100%
mortality at 1250 ppm (granary weevil [12]): 100%
mortality at 1250 ppm (plum curculio [13]): 95%
mortality at 1250 ppm (granary weevil [14]): 100%
% Kill, AW (initial contact) (southern army worm [15]): 100%
mortality at 1250 ppm (Mexican bean beetle [16]): 100%
% Kill, AW (residual contact) (southern army worm [17]): 100%
mortality at 1250 ppm (Mexican bean beetle [18]): 100%
mortality at 1250 ppm (two-spotted spider mite [19]): 100%
mortality at 1250 ppm (two-spotted spider mite [20]): 30%

CN(Sc1ccc(C(C)(C)C)cc1)C(=O)Oc1cccc2c1OC(C)(C)C2 [Example III, 2,3-Dihydro-2,2-dimethyl-7-benzofuranyl (4-tert-butylphenylthio)(methyl)carbamate]
LD50 (houseflies): 2.7 mg/kg
LC50 (Culex fatigans): 2.5 ng/mL (≈ 6.48 nM)
LD50 at 48 h (in vivo): 75 mg/kg
mortality at 1250 ppm (confused flour beetle [1]; 1250 ppm, 48 h exposure): 100%
mortality at 1250 ppm (confused flour beetle [2]; 1250 ppm, 7 days): 100%
% Kill, AW (systemic) (southern army worm [3]; [21]): 0%
% Kill, AW (systemic) (southern army worm [3]; 156 ppm soil watering): 0%
mortality at 39 ppm (Mexican bean beetle [4]): 56%
mortality at 156 ppm (Mexican bean beetle [4]): 100%
mortality at 39 ppm (pea aphid [5]): 5%
mortality at 156 ppm (pea aphid [5]): 43%
mortality at 39 ppm (two-spotted spider mite [6]): 1%
mortality at 156 ppm (two-spotted spider mite [6]): 4%
mortality at 1250 ppm (milkweed bug [9]): 100%
mortality at 1250 ppm (plum curculio [10]): 100%
mortality at 1250 ppm (milkweed bug [11]): 100%
mortality at 1250 ppm (granary weevil [12]): 100%
mortality at 1250 ppm (plum curculio [13]): 95%
mortality at 1250 ppm (granary weevil [14]): 100%
% Kill, AW (initial contact) (southern army worm [15]): 100%
mortality at 1250 ppm (Mexican bean beetle [16]): 100%
% Kill, AW (residual contact) (southern army worm [17]): 31%
mortality at 1250 ppm (Mexican bean beetle [18]): 100%
mortality at 1250 ppm (two-spotted spider mite [19]): 27%
mortality at 1250 ppm (two-spotted spider mite [20]): 2%

Reference: patent publication US3997549A, “N-arylsulfenylated derivatives of benzofuranyl methylcarbamates” (priority 1973, dated 1976)
